{
  "source": "patent US10736877B2",
  "about": "“Tryptamine-based ship inhibitors for the treatment of cancer” (THE RESEARCH FOUNDATION FOR THE STATE UNIVERSITY OF NEW YORK, priority 2015, dated 2020)",
  "key": {"CACO-2": {"system": "CACO-2", "assay": "MTT cell viability assay, CACO-2", "format": "cell-based", "details": "for cell viability (MTT): CACO-2"}, "[1]": {"system": "PKB, pS6 and ERK phosphorylation in CACO-2 cells", "assay": "Western blotting of signaling, CACO-2 cells", "format": "cell-based, human", "details": "CACO-2, serum starved; K149 10 μM 1 h, LY2940002 20 μM 1 h, EGF 10 ng/mL 15 minutes", "description": "(§1) Western blotting. HCT116 and CACO-2 cells were serum starved by incubating for 2 h, after which cells were stimulated for 15 minutes with EGF (10 ng/mL), or stimulated for 1 h with LY2940002 (20 μM) or SHIP2 inhibitor K149 (10 μM). Subsequently, cells were washed with PBS and lysed on ice in 300 μL 2× concentrated Laemmli buffer (100 mM Tris-HCl (pH 6.8), 200 mM dithiothreitol, 4% SDS, 0.1% bromophenol blue, 20% glycerol, and 2% DTT) and boiled for 5 minutes at 95° C. Cell extracts were resolved by SDS-PAGE and transferred to polyvinylidene difluoride membranes (Merck chemicals BV, Amsterdam, the Netherlands). Membranes were blocked in 50% odyssey blocking buffer (LI-COR Biosciences, Lincoln, Nebr.) in PBS/0.05% Tween-20 and incubated overnight at 4° C. with primary antibody. After washing in PBS-T, membranes were incubated with IRDye® antibodies (LI-COR Biosciences, Lincoln, Nebr.) for 1 h. Detection was performed using Odyssey reader and analyzed using manufacturers software."}, "SHIP1": {"system": "SHIP1", "assay": "Malachite green phosphatase release assay, SHIP1", "details": "for SHIP1 Inhibition: Malachite green assay at 1mM", "quoted_text": "Compounds were dissolved in 100% DMSO and then diluted to indicate final concentrations of performed assays (5% DMSO final concentration).\nFor this purpose, OPM2 cells were lysed in IP-lysis buffer (20 mM Tris, 150 mM NaCl, 1 mM EDTA, 1 mM EGTA, 1% Triton X100, 1 mM PMSF, Halt protease inhibitor), and SHIP1 or OCRL were immuno-precipitated using mouse IgG antibodies from Santa Cruz Biotechnology (Santa Cruz, Calif.). Beads were washed four times with IP lysis buffer and once with TBS/MgCl2 (10 mM) and resuspended in TBS/MgCl2. SHIP inhibitors (200 μM) were added to the beads for 5 minutes, after which immunoprecipitated SHIP1 was incubated in the presence of 100 μM PtdIns(3,4,5)P3 (Echelon Biosciences, Salt Lake City, Utah), whereas immunoprecipitated OCRL was incubated in the presence of 100 μM PtdIns(4,5)P2 for 30 minutes. Malachite green solution was added according to manufacturer's instructions, and the plate was read after 20 minutes."}, "OPM2": {"system": "OPM2", "assay": "Cell growth, OPM2 multiple myeloma cell line", "details": "OPM2, increasing concentrations, compared with K103", "quoted_text": "(§2) Cells were treated in triplicate or more with increasing concentrations of compounds.\n(§3) All cell culture media were supplemented with 100 U/mL penicillin, 100 mg/mL streptomycin (Life technologies, Bleiswijk, NL) and 10% Fecal Calf Serum (FCS, Sigma-Aldrich, St. Louis, USA). Cells were maintained at 37° C. in a 5% CO2 humidified setting."}, "MDA-MB-231": {"system": "MDA-MB-231", "assay": "Cell growth, MDA-MB-231 breast cancer cell line", "details": "MDA-MB-231, increasing concentrations, compared with K103", "quoted_text": "as §2, §3"}, "[2]": {"system": "PKB, pS6 and ERK phosphorylation in HCT116 cells", "assay": "Western blotting of signaling, HCT116 cells", "format": "cell-based, human", "details": "HCT116, serum starved; K149 10 μM 1 h, LY2940002 20 μM 1 h, EGF 10 ng/mL 15 minutes", "description": "as §1"}, "MCF-7": {"system": "MCF-7", "assay": "Cell growth, MCF-7 breast cancer cell line", "details": "MCF-7, increasing concentrations, compared with K103", "quoted_text": "as §2, §3"}, "K562": {"system": "K562", "assay": "Cell growth, K562 leukemia cell line", "details": "K562, increasing concentrations, compared with K103", "quoted_text": "as §2, §3"}, "[3]": {"system": "MDSC, iTreg cells, nTreg cells, neutrophils", "assay": "Immune cell numbers and frequencies by flow cytometry in dosed mice", "format": "in vivo", "details": "10 mg/kg in 5% DMSO for 6 days", "description": "Mice were dosed for 6 days with […]"}, "[4]": {"system": "HCT116, RKO, LS-174T, CACO-2 and COLO 320", "assay": "Cell viability in colorectal cancer cell lines with and without PI3K mutations", "details": "3 cell lines with PIK3CA mutation, 2 without", "quoted_text": "Cell lines. […] Colorectal cancer cell lines HCT116 CACO-2, COLO 320, and RKO were cultured in Dulbecco's Modified Eagles Medium (DMEM, Lonza, Basel, Switzerland). […] All cell culture media were supplemented with 100 U/mL penicillin, 100 mg/mL streptomycin (Life technologies, Bleiswijk, NL) and 10% Fecal Calf Serum (FCS, Sigma-Aldrich, St. Louis, USA). Cells were maintained at 37° C. in a 5% CO2 humidified setting.\nCell viability assay. Cell viability was assessed using MTT assays. Cells were incubated with different concentrations of SHIP2 inhibitors, and/or chemotherapeutic agent 5-FU. 24 h, 48 h, 72 h, and 96 h after incubation cells were incubated with 5 mM MTT (3-(4,5-Dimethylthiazol-2-yl)-2,5-diphenyltetrazolium bromide) for 3 h and colorimetric changes were measured using a microplate reader (Model 680XR Bio-Rad) at 490 and 595 nm."}, "HCT116": {"system": "HCT116", "assay": "MTT cell viability assay, HCT116", "format": "cell-based", "details": "for cell viability (MTT): HCT116"}, "[5]": {"assay": "High fat diet (diet-induced obese) mice: weight, bone health, toxicity", "details": "HFD mice, 2× week, i.p., 10 mg/kg, two weeks"}, "SHIP2": {"system": "SHIP2", "assay": "Malachite green phosphatase release assay, SHIP2", "format": "biochemical, human", "details": "for SHIP2 Inhibition: Malachite green assay at 1mM", "text": "Detection of phosphatase enzymatic activity."}, "breast cancer cells": {"system": "breast cancer cells", "details": "cited from earlier work"}},
  "note": "“Also recorded” adds a separate entry of the source.",
  "data": [
    {"molecule": "CSc1ccc2c(c1)c(CCN)c(C)n2Cc1ccc(Cl)cc1Cl.Cl", "note": "[Compound K149, 2-[1-(2,4-dichlorobenzyl)-2-methyl-5-(methylmercapto)-1H-3-yl] ethanaminium chloride]", "values": [
      {"measurement": "cell viability (MTT)", "setting": "CACO-2", "value": "dose-dependent reduction in cell viability; also recorded: more sensitive to the K149 inhibitor; also recorded: dose-dependent cell death"},
      {"measurement": "5-FU-induced cell death with SHIP2 inhibitor co-treatment", "setting": "CACO-2; CACO-2, K149 2 uM with increasing concentrations of 5-FU", "value": "sensitizes CRC cells to the 5-FU treatment; also recorded: enhanced"},
      {"measurement": "ERK phosphorylation", "setting": "[1]", "value": "not affected by either inhibitor; also recorded: affected by neither inhibitor"},
      {"measurement": "PKB phosphorylation", "setting": "[1]", "value": "diminished; also recorded: decreased"},
      {"measurement": "pS6 phosphorylation", "setting": "[1]", "value": "drastically increased"},
      {"measurement": "effects compared to K103", "setting": "SHIP1; FIG. 1A-C, FIG. 1C is recombinant human tSHIP1", "value": "superior effects compared to K103"},
      {"measurement": "SHIP1 Inhibition", "setting": "SHIP1", "value": 81, "unit": "%"},
      {"measurement": "control of cancer cell growth", "setting": "OPM2", "value": "more effective at controlling cancer cell growth"},
      {"measurement": "control of cancer cell growth", "setting": "MDA-MB-231", "value": "more effective at controlling cancer cell growth"},
      {"measurement": "ERK phosphorylation", "setting": "[2]", "value": "not affected by either inhibitor; also recorded: affected by neither inhibitor"},
      {"measurement": "PKB phosphorylation", "setting": "[2]", "value": "diminished; also recorded: decreased"},
      {"measurement": "pS6 phosphorylation", "setting": "[2]", "value": "drastically increased"},
      {"measurement": "control of cancer cell growth", "setting": "MCF-7", "value": "more effective at controlling cancer cell growth"},
      {"measurement": "control of cancer cell growth", "setting": "K562", "value": "more effective at controlling cancer cell growth"},
      {"measurement": "MDSC counts", "setting": "[3]", "value": "significant increases"},
      {"measurement": "iTreg cell counts", "setting": "[3]", "value": "significant increases"},
      {"measurement": "nTreg cell counts", "setting": "[3]", "value": "significant increases"},
      {"measurement": "neutrophil counts", "setting": "[3]", "value": "significant increases"},
      {"measurement": "sensitivity by PI3K (PIK3CA) mutational status", "setting": "[4]", "value": "no difference in sensitivity to SHIP2 inhibition based on PIK3CA mutational status; also recorded: No relationship between SHIP2 inhibition and PI3K mutational status exists"},
      {"measurement": "cell viability (MTT)", "setting": "HCT116", "value": "dose-dependent reduction in cell viability; also recorded: more sensitive to the K149 inhibitor; also recorded: induced cell death at lower concentrations in HCT116 cells than CACO-2 cells; also recorded: dose-dependent cell death"},
      {"measurement": "5-FU-induced cell death with SHIP2 inhibitor co-treatment", "setting": "HCT116; HCT116, K149 2 uM with increasing concentrations of 5-FU", "value": "sensitizes CRC cells to the 5-FU treatment; also recorded: enhanced"},
      {"measurement": "% body weight", "setting": "[5]", "value": "significant reductions"},
      {"measurement": "total weight", "setting": "[5]", "value": "significant reductions; also recorded: promotes weight loss"},
      {"measurement": "toxicity", "setting": "[5]", "value": "No toxicity was observed"},
      {"measurement": "bone mineral content (BMC)", "setting": "[5]; DEXA", "value": "no significant reduction or increase"},
      {"measurement": "bone mineral density (BMD)", "setting": "[5]; DEXA", "value": "no significant reduction or increase"}
    ]},
    {"molecule": "CSc1ccc2c(c1)c(CCN)c(C)n2Cc1ccccc1.Cl", "note": "[Compound K125, 2-[1-benzyl-2-methyl-5-(methylmercapto)-1H-3-yl] ethanaminium chloride]", "values": [
      {"measurement": "SHIP1 Inhibition", "setting": "SHIP1", "value": 64, "unit": "%"},
      {"measurement": "melting point", "value": "178 to 189", "unit": "°C"},
      {"measurement": "SHIP2 Inhibition", "setting": "SHIP2", "value": 80, "unit": "%"}
    ]},
    {"molecule": "EGF: Epidermal Growth Factor, used to stimulate cellular signaling [reference compound]", "values": [
      {"measurement": "ERK phosphorylation", "setting": "[1]", "value": "increased"},
      {"measurement": "PKB phosphorylation", "setting": "[1]", "value": "increased"},
      {"measurement": "pS6 phosphorylation", "setting": "[1]", "value": "increased"},
      {"measurement": "ERK phosphorylation", "setting": "[2]", "value": "increased"},
      {"measurement": "PKB phosphorylation", "setting": "[2]", "value": "increased"},
      {"measurement": "pS6 phosphorylation", "setting": "[2]", "value": "increased"}
    ]},
    {"molecule": "Cc1c(CCN)c2ccccc2n1Cc1ccccc1.Cl", "note": "[Compound K123, 2-[1-benzyl-2-methyl-5-1H-3-yl] ethanaminium chloride]", "values": [
      {"measurement": "SHIP1 Inhibition", "setting": "SHIP1", "value": 15, "unit": "%"},
      {"measurement": "melting point", "value": "158 to 161", "unit": "°C"}
    ]},
    {"molecule": "CSc1ccc2c(c1)c(CCN)c(C)n2Cc1ccc(Cl)cc1.Cl", "note": "[Compound K160, 2-[1-(4-chlorobenzyl)-2-methyl-5-(methylmercapto)-1H-3-yl] ethanaminium chloride]", "values": [
      {"measurement": "SHIP1 Inhibition", "setting": "SHIP1", "value": 78, "unit": "%"},
      {"measurement": "melting point", "value": "198 to 209", "unit": "°C"},
      {"measurement": "SHIP2 Inhibition", "setting": "SHIP2", "value": 61, "unit": "%"}
    ]},
    {"molecule": "Cc1c(CCN)c2cc(Br)ccc2n1Cc1ccccc1Cl.Cl", "note": "[Compound K148, 2-[1-(2-chlorobenzyl)-2-methyl-5-(bromo)-1H-3-yl] ethanaminium chloride]", "values": [
      {"measurement": "SHIP1 Inhibition", "setting": "SHIP1", "value": 77, "unit": "%"},
      {"measurement": "SHIP2 Inhibition", "setting": "SHIP2", "value": 70, "unit": "%"}
    ]},
    {"molecule": "CSc1ccc2c(c1)c(CCN)c(C)n2Cc1ccc(Cl)cc1.Cl", "note": "[Compound K103, reference compound]", "values": [
      {"measurement": "cell viability (MTT)", "setting": "CACO-2; hydrochloride", "value": "dose-dependent reduction in cell viability; also recorded: dose-dependent cell death"},
      {"measurement": "SHIP2 activity", "setting": "SHIP2; recombinant SHIP2, 500 uM, vs vehicle control (DMSO), FIG. 5", "value": "inhibition of the SHIP2 activity"},
      {"measurement": "killing breast cancer cells", "setting": "breast cancer cells", "value": "effective in killing breast cancer cells"},
      {"measurement": "cell viability (MTT)", "setting": "HCT116; hydrochloride", "value": "dose-dependent reduction in cell viability; also recorded: induced cell death at lower concentrations in HCT116 cells than CACO-2 cells; also recorded: dose-dependent cell death"}
    ]},
    {"molecule": "Cc1c(CCN)c2ccccc2n1Cc1ccccc1Cl.Cl", "values": [
      {"measurement": "melting point", "value": "161 to 169", "unit": "°C"}
    ]},
    {"molecule": "Cc1c(CCN)c2ccccc2n1Cc1ccccc1Cl.Cl", "note": "[Compound K124, 2-[1-(2-chlorobenzyl)-2-methyl-5-1H-3-yl] ethanaminium chloride]", "values": [
      {"measurement": "SHIP1 Inhibition", "setting": "SHIP1", "value": 62, "unit": "%"},
      {"measurement": "SHIP2 Inhibition", "setting": "SHIP2", "value": 70, "unit": "%"}
    ]}
  ]
}
